# In ChEMBL document CHEMBL1146293, “From dihydroxypyrimidine carboxylic acids to carboxamide HIV-1 integrase inhibitors: SAR around the amide moiety” (Bioorg Med Chem Lett, 2007):
# The source made the active and inactive calls. No cut-off for these calls is given here.
# Test system: not listed separately
# Test: Oral bioavailability in rat
# Assay type: ADME, organism-based
# Settings: in vivo
row,bioavailability [%],SMILES
1,39,O=C(NCc1ccc(F)cc1)c1nc(-c2cccs2)nc(O)c1O

# Test system: Hepacivirus hominis
# Test: Inhibition of HCV NS5b polymerase
# Settings: not given
row,Activity,SMILES
1,inactive,O=C(O)c1nc(-c2cccs2)nc(O)c1O

# Target: Human immunodeficiency virus type 1 integrase (Human immunodeficiency virus 1, UniProt Q7ZJM1)
# Test: Inhibition of HIV1 integrase strand transfer activity
# Settings: not given
# Human immunodeficiency virus type 1 integrase, sequence (Q7ZJM1 whole entry): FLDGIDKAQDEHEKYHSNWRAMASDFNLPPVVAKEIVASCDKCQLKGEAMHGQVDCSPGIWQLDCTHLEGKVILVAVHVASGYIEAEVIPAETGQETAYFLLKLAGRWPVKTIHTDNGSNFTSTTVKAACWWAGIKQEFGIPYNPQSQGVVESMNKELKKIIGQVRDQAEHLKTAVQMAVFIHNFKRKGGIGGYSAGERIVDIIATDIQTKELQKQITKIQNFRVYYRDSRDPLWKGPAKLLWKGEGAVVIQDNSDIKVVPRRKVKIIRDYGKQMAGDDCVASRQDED
row,IC50 [nM],SMILES
1,130,O=C(NCc1ccccc1-c1ccccc1)c1nc(-c2cccs2)nc(O)c1O
2,20,O=C(NCc1c[nH]c2ccccc12)c1nc(-c2cccs2)nc(O)c1O
3,50,COc1cccc(CNC(=O)c2nc(-c3cccs3)nc(O)c2O)c1
4,110,Cc1ccccc1CNC(=O)c1nc(-c2cccs2)nc(O)c1O
5,20,O=C(NCCc1ccccc1)c1nc(-c2cccs2)nc(O)c1O
6,20,O=C(NCc1ccc(Cl)cc1)c1nc(-c2cccs2)nc(O)c1O
7,16600,O=C(NCc1ccncc1)c1nc(-c2cccs2)nc(O)c1O
8,1000,O=C(Nc1ccccc1)c1nc(-c2cccs2)nc(O)c1O
9,90,COc1ccccc1CNC(=O)c1nc(-c2cccs2)nc(O)c1O
10,70,O=C(NCc1cccc(F)c1)c1nc(-c2cccs2)nc(O)c1O
11,10,O=C(NCc1ccc(Cl)c(Cl)c1)c1nc(-c2cccs2)nc(O)c1O
12,40,Cc1cccc(CNC(=O)c2nc(-c3cccs3)nc(O)c2O)c1
13,70,Cc1ccc(CNC(=O)c2nc(-c3cccs3)nc(O)c2O)cc1
14,550,COc1ccc(CNC(=O)c2nc(-c3cccs3)nc(O)c2O)cc1
15,50000,O=C(NCc1ccc(-c2ccccc2)cc1)c1nc(-c2cccs2)nc(O)c1O
16,160,O=C(NCc1ccccc1F)c1nc(-c2cccs2)nc(O)c1O

# The remaining lines, values behind:
row,SMILES,IC50 [nM]
1,O=C(Nc1csc2ccccc12)c1nc(-c2cccs2)nc(O)c1O,50
2,O=C(N[C@@H]1CCc2ccccc21)c1nc(-c2cccs2)nc(O)c1O,610
3,O=C(Nc1cc2ccccc2s1)c1nc(-c2cccs2)nc(O)c1O,10
4,O=C(Nc1cccc2ccccc12)c1nc(-c2cccs2)nc(O)c1O,30
5,O=C(NCC1CCCCC1)c1nc(-c2cccs2)nc(O)c1O,50000
6,O=C(Nc1nccs1)c1nc(-c2cccs2)nc(O)c1O,200
7,O=C(N[C@H]1CCc2ccccc21)c1nc(-c2cccs2)nc(O)c1O,20
8,CN(C(=O)c1nc(-c2cccs2)nc(O)c1O)c1cccc2ccccc12,210
9,O=C(Nc1cncs1)c1nc(-c2cccs2)nc(O)c1O,2500
10,C[C@@H](NC(=O)c1nc(-c2cccs2)nc(O)c1O)c1ccc2ccccc2c1,610
11,O=C(Nc1cccs1)c1nc(-c2cccs2)nc(O)c1O,100
12,O=C(NCc1cccc(-c2ccccc2)c1)c1nc(-c2cccs2)nc(O)c1O,50
13,C[C@H](NC(=O)c1nc(-c2cccs2)nc(O)c1O)c1ccc2ccccc2c1,40

# Test system: Human immunodeficiency virus
# Test: Inhibition of HIV reverse transcriptase
# Settings: not given
row,Activity,SMILES
1,inactive,O=C(NCc1ccc(F)cc1)c1nc(-c2cccs2)nc(O)c1O

# Species: Homo sapiens
# Test: Inhibitory activity against human DNA polymerase gamma
# Settings: not given
row,Activity,SMILES
1,inactive,O=C(NCc1ccc(F)cc1)c1nc(-c2cccs2)nc(O)c1O

# Species: Homo sapiens
# Test: Inhibitory activity against human DNA polymerase alpha
# Settings: not given
row,Activity,SMILES
1,inactive,O=C(NCc1ccc(F)cc1)c1nc(-c2cccs2)nc(O)c1O

# Test system: not listed separately
# Test: Plasma clearance in rat
# Assay type: ADME, organism-based
# Settings: not given
row,clearance [mL/min/kg],SMILES
1,11,O=C(NCc1ccc(F)cc1)c1nc(-c2cccs2)nc(O)c1O

# Species: Homo sapiens
# Test: Inhibitory activity against human DNA polymerase beta
# Settings: not given
row,Activity,SMILES
1,inactive,O=C(NCc1ccc(F)cc1)c1nc(-c2cccs2)nc(O)c1O
